Source: ChEMBL document CHEMBL1201862, “PubChem BioAssay data set” (2004)
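Cultured in 96-well plates, cells were exposed to test compound for 48 hours across five concentrations. GI50 = concentration required for 50% inhibition of growth.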 Activity calls are given as the source filed them. Rule as the data show it: active = GI50 up to about 1.1 µM and inactive = higher.

Assays:
Assay in all cases: inhibition of tumour cell growth, NCI panel, 48 h
BT-549 = system: BT-549
HOP-92 = system: HOP-92
TK-10 = system: TK-10
SF-539 = system: SF-539
RPMI-8226 = system: RPMI-8226
NCI-H460 = system: NCI-H460
SW-620 = system: SW-620
SR = system: SR
EKVX = system: EKVX
KM12 = system: KM12
ACHN = system: ACHN
M14 = system: M14
U-251 = system: U-251
IGROV-1 = system: IGROV-1
HCC 2998 = system: HCC 2998
NCI/ADR-RES = system: NCI/ADR-RES
MDA-MB-435 = system: MDA-MB-435
HOP-62 = system: HOP-62
A498 = system: A498

Measured: GI50

Nc1ccc2nc3n(c2c1)C(=O)c1ccccc1-3
inactive: BT-549 > 100 µM | HOP-92 > 100 µM | TK-10 > 100 µM | SF-539 > 100 µM | RPMI-8226 > 100 µM | NCI-H460 > 100 µM | SW-620 > 100 µM | SR > 100 µM | EKVX > 100 µM | KM12 > 100 µM | ACHN > 100 µM | M14 > 100 µM | U-251 > 100 µM | IGROV-1 > 100 µM | HCC 2998 > 100 µM | NCI/ADR-RES > 100 µM

N#C/C(=C/n1c(=S)[nH]c2ccc([N+](=O)[O-])cc21)C(N)=O
inactive: HOP-92 > 100 µM | TK-10 > 100 µM | MDA-MB-435 > 100 µM | SF-539 > 100 µM | RPMI-8226 > 100 µM | NCI-H460 > 100 µM | SW-620 > 100 µM | SR > 100 µM | EKVX 22.2 µM | KM12 > 100 µM | ACHN > 100 µM | M14 > 100 µM | U-251 > 100 µM | HOP-62 > 100 µM | IGROV-1 > 100 µM | NCI/ADR-RES > 100 µM

Cc1ccc(S(=O)(=O)NC2C(=O)c3ccccc3C(=O)C2n2ccnc2)cc1 (stereo not given)
inactive: HOP-92 35.8 µM | TK-10 > 100 µM | MDA-MB-435 17.9 µM | SF-539 > 100 µM | RPMI-8226 > 100 µM | NCI-H460 > 100 µM | SW-620 > 100 µM | SR 67.8 µM | EKVX > 100 µM | KM12 > 100 µM | ACHN > 100 µM | M14 > 100 µM | U-251 > 100 µM | HOP-62 > 100 µM | IGROV-1 > 100 µM | HCC 2998 > 100 µM | NCI/ADR-RES > 100 µM

Cc1nc2ccccc2c(=O)n1NC(=O)c1ccccc1O
inactive: BT-549 > 100 µM | HOP-92 > 100 µM | TK-10 > 100 µM | MDA-MB-435 > 100 µM | SF-539 > 100 µM | RPMI-8226 > 100 µM | A498 > 100 µM | NCI-H460 > 100 µM | SW-620 > 100 µM | SR > 100 µM | EKVX > 100 µM | KM12 > 100 µM | ACHN > 100 µM | M14 > 100 µM | U-251 > 100 µM | HOP-62 > 100 µM | IGROV-1 > 100 µM | HCC 2998 > 100 µM

O=C(/C=C/c1cccs1)c1ccsc1
inactive: TK-10 22.7 µM | MDA-MB-435 21.8 µM | RPMI-8226 15.9 µM | A498 38.7 µM | NCI-H460 24.5 µM | SW-620 29 µM | SR 16.6 µM | EKVX 31.1 µM | KM12 > 10 µM | ACHN 20.2 µM | M14 39.2 µM | U-251 > 10 µM | HOP-62 73.5 µM | IGROV-1 25.1 µM | HCC 2998 17.4 µM | NCI/ADR-RES 35.2 µM

Cc1ccc(S(=O)(=O)NC(=O)NCCc2ccc(O)c(O)c2)cc1
inactive: HOP-92 > 100 µM | TK-10 > 100 µM | MDA-MB-435 51.3 µM | SF-539 > 100 µM | RPMI-8226 38 µM | A498 > 100 µM | NCI-H460 > 100 µM | SW-620 > 100 µM | SR > 100 µM | EKVX > 100 µM | KM12 > 100 µM | ACHN > 100 µM | M14 > 100 µM | U-251 > 100 µM | HOP-62 > 100 µM | IGROV-1 > 100 µM | HCC 2998 > 100 µM | NCI/ADR-RES > 100 µM

O=C1C(Br)=C(c2ccccc2)O/C1=C/C(=O)c1ccc(Br)cc1
inactive: BT-549 5.38 µM | HOP-92 49.1 µM | TK-10 37.3 µM | MDA-MB-435 42.1 µM | SF-539 > 100 µM | RPMI-8226 19.1 µM | A498 > 100 µM | NCI-H460 > 100 µM | SW-620 23.5 µM | SR 27.5 µM | EKVX > 100 µM | KM12 > 100 µM | ACHN 38.5 µM | M14 > 100 µM | U-251 30.8 µM | HOP-62 > 100 µM | IGROV-1 54.7 µM | HCC 2998 > 100 µM

Cc1cc2c(=O)c3ccccc3oc2c(C#N)c1C
inactive: HOP-92 > 100 µM | TK-10 > 100 µM | RPMI-8226 > 100 µM | A498 > 100 µM | NCI-H460 > 100 µM | SW-620 > 100 µM | SR > 100 µM | EKVX > 100 µM | KM12 > 100 µM | ACHN > 100 µM | M14 > 100 µM | U-251 > 100 µM | HOP-62 > 100 µM | IGROV-1 > 100 µM | HCC 2998 > 100 µM | NCI/ADR-RES > 100 µM

O=P(O)(O)c1ccc2c(c1)OCCOCCOCCOCCO2
inactive: BT-549 > 100 µM | TK-10 > 100 µM | MDA-MB-435 > 100 µM | SF-539 > 100 µM | RPMI-8226 > 100 µM | A498 > 100 µM | NCI-H460 > 100 µM | SW-620 > 100 µM | SR > 100 µM | EKVX > 100 µM | KM12 > 100 µM | ACHN > 100 µM | HOP-62 > 100 µM | IGROV-1 > 100 µM | HCC 2998 > 100 µM

CC1=C2[C@@H](c3ccccc3)C3C=CC2(c2ccccc23)N(C(=O)Nc2cccc3ccccc23)C1=O (stereo not given in full)
inactive: HOP-92 > 100 µM | SF-539 > 100 µM | RPMI-8226 > 100 µM | A498 > 100 µM | SW-620 > 100 µM | SR > 100 µM | EKVX > 100 µM | KM12 > 100 µM | ACHN > 100 µM | M14 > 100 µM | U-251 > 100 µM | HOP-62 > 100 µM | IGROV-1 > 100 µM | HCC 2998 > 100 µM

O=S(=O)(O)c1cc(O)c(/N=N/c2ccc(O)cc2O)c2ccccc12
inactive: HOP-92 > 100 µM | TK-10 > 100 µM | MDA-MB-435 51.3 µM | RPMI-8226 > 100 µM | SW-620 86.3 µM | SR > 100 µM | EKVX 30.9 µM | KM12 20.9 µM | ACHN > 100 µM | M14 42.7 µM | U-251 > 100 µM | HOP-62 66.7 µM | IGROV-1 22.8 µM | NCI/ADR-RES 38.6 µM

O=CC12c3ccccc3C(c3ccccc31)C1C(=O)NC(=O)C12 (stereo not given)
inactive: HOP-92 > 100 µM | TK-10 > 100 µM | MDA-MB-435 > 100 µM | SF-539 > 100 µM | A498 10.8 µM | NCI-H460 > 100 µM | SW-620 > 100 µM | SR > 100 µM | EKVX > 100 µM | KM12 > 100 µM | ACHN > 100 µM | M14 > 100 µM | U-251 > 100 µM | HOP-62 56 µM | IGROV-1 37.2 µM | HCC 2998 > 100 µM | NCI/ADR-RES > 100 µM
